Source: US20020111532A1, “Tris(hydroxymethyl)phosphino compounds as tissue crosslinking agents” (priority 2000, published 2002)

Assay: Shrinkage Temperature Assay (differential scanning calorimetric analysis)
Type: physicochemical
Settings: bovine pericardium crosslinked overnight at room temperature; THPP 10 mg/mL in PBS or 0.25% glutaraldehyde
Protocol: Tissue Crosslinking: Bovine pericardium tissue was cut into ˜1 cm^2 samples and rinsed in ˜1 L ultrafiltered H2O for about 30 min with stirring. The samples were then rinsed in PBS for an additional 30 min at room temperature with shaking.
Samples were left in solution overnight at room temperature. Samples were then rinsed 5×30 min in ˜200 mL PBS each rinse, and then either tested immediately or stored in 0.01 M HEPES with 40% isopropyl alcohol until testing.
Shrinkage Temperature Assay: The shrinkage temperature of some crosslinked samples was determined using standard differential scanning calorimetric analysis. Briefly, 2-10 mg of tissue was heated at 10° C. increments under nitrogen. Typically, an endotherm is seen in the range of 60° C.-90° C., and this endotherm is attributed to a shrinkage transition.

Shrink Onset Temperature: 86.04 °C
Structure (SMILES): O=CCCCC=O [Glutaraldehyde, glutaraldehyde]
